Source: patent publication US6486305B1, “METHOD OF MODULATING THE EFFICIENCY OF TRANSLATION TERMINATION AND DEGRADATION OF ABERRANT MRNA INVOLVING A SURVEILLANCE COMPLEX COMPRISING HUMAN UPF1P, EUCARYOTIC RELEASE FACTOR 1 AND EUCARYOTIC RELEASE FACTOR 3” (priority 1998, dated 2002)
Residue numbers refer to the chain shown, from its start. Names may count otherwise. “Also recorded” adds a separate entry of the source.

How the values were obtained:
Upf1p-eRF3 interaction [1] = target: T1, Upf1p-eRF3 interaction (Saccharomyces cerevisiae, UniProt P30771); assay: GST-eRF3 pull-down of purified FLAG-Upf1p with immunoblotting; assay type: binding, yeast; conditions: 1 mM ATP, 1 mM GTP, or 100 μg/ml poly(U) RNA
T1 construct: FLAG (N); made in house; host or cells: GST-eRF3: E. coli BL21(DE3) pLysS with pGEX2T-SUP35
T1 sequence (P30771 1-971): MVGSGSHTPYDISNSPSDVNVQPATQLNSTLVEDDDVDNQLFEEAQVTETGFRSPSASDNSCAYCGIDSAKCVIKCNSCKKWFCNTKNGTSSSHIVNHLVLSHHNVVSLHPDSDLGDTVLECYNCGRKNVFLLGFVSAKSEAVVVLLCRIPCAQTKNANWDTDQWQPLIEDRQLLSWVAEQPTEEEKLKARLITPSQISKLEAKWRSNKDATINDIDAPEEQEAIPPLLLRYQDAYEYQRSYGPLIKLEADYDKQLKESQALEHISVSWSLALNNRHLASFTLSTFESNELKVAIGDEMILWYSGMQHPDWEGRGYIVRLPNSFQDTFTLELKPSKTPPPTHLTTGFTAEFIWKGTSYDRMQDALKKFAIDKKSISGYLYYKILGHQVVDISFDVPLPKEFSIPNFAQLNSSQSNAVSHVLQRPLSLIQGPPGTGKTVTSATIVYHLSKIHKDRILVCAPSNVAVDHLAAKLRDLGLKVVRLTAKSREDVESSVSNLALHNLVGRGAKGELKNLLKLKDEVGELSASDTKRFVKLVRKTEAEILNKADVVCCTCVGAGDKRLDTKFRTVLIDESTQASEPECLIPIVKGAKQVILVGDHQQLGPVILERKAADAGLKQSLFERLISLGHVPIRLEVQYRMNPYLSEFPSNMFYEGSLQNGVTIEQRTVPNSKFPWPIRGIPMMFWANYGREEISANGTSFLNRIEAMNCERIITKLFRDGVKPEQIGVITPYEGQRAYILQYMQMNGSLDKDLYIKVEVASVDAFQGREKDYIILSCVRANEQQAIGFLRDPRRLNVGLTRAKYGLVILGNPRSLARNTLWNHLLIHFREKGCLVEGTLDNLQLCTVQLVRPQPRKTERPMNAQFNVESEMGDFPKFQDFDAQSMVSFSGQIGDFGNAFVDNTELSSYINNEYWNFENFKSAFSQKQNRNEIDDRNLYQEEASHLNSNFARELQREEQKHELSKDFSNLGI
Procedure: (§1) FIGS. 1A-1B. The yeast Upf1 protein interacts specifically with the peptidyl release factors. (1A) GST-eRF1 or GST-eRF3 […] proteins bind specifically to Upf1p in a yeast extract. Cytoplasmic extracts from a yeast strain BJ3505 transformed with either pG-1 (vector) or pG-1FLAGUPF1 (Flag-Upf1p) were prepared in IBTB and incubated with 30 μl GST, GST-eRF1 or GST-eRF3 sepharose-protein complexes. The sepharose-protein complexes were washed 2 times in IBTB (see materials and methods), resuspended in SDS-PAGE loading buffer, separated on an 8% SDS-PAGE gel and immunoblotted using anti-FLAG antibody. (1B) Upf1p interacts directly with both eRF1 and eRF3. Upf1p was purified as described previously (Czaplinski et al. 1995). 200 ng of Upf1p was added to 10 μl of GST, GST-eRF1 or GST-eRF3 sepharose-protein complexes in a total reaction volume of 200 μl in IBTB supplemented with KCl to the final concentration indicated above each lane. After 1 hour at 4° C. sepharose-protein complexes were washed for 3 minutes with 1 ml of IBTB supplemented with KCl to the final concentration indicated above each lane. The purified sepharose-protein complexes were resuspended in SDS-PAGE loading buffer and separated on a 7.5% SDS-PAGE gel and immunoblotted as in (A).
(§2) FIGS. 3A-3B. eRF3 and RNA compete for binding to Upf1p. (3A) Poly(U) RNA prevents Upf1p from binding to eRF3. Reaction mixtures were prepared as described in FIG. 1B, except that binding was performed in TBSTB (TBST with 100 μg/ml BSA) and reaction mixtures contained 1 mM ATP, 1 mM GTP, or 100 μg/ml poly(U) RNA as indicated above each lane. The reaction mixtures were mixed for 1 hour at 4° C. Following mixing, the complexes were washed as in FIG. 1B with TBSTB containing 1 mM ATP, 1 mM GTP, or 100 μg/ml poly(U) RNA as indicated above each lane. […]
(§3) Further, purified Flag-Upf1p with poly(U) RNA was incubated in the presence or absence of ATP. Following incubation, GST-eRF3 was added to the reaction mixtures and the Upf1-eRF3 interaction was monitored by immunoblotting analysis as before.

[2] = tested on: isogenic wild-type and upf3Δ strains; assay: Paromomycin sensitivity, zone of growth inhibition around a disc on a lawn of cells; assay type: cell-based, Saccharomyces cerevisiae
Procedure: FIG. 11. Paromomycin sensitivity was monitored in isogenic wild-type and upf3Δ strains by placing a disc containing 1 mg of paromomycin onto a lawn of cells and determining the zone of growth inhibition around the disc.
Paromomycin sensitivity was monitored in isogenic wild-type and upf3Δ strains by placing a disc containing 1 mg of paromomycin onto a lawn of cells and determining the zone of growth inhibition around the disc (FIG. 11).

[3] = tested on: −1 ribosomal frameshifting; assay: β-galactosidase assay of −1 ribosomal frameshifting in the presence of paromomycin; assay type: cell-based, Saccharomyces cerevisiae
Procedure: Cloning of UPF3: The strategy used to clone the UPF3 gene was the same that was used to clone UPF2 (Cui, Y, K. W. Hagan, S. Zhang, and Peltz, S. W. (1995)). […] Killer assays, frameshifting assays and extraction and analysis of total nucleic acids: The killer assay was carried out as previously described (Dinman, J. D., and Wickner, R. B. (1992)) by replica plating colonies onto 4.7 MB plates newly seeded with a lawn of 5×47 killer indicator cells (0.5 ml of a suspension at 1 unit of optical density at 550 nm per ml per plate). After 2 days at 20° C., killer activity was observed as a zone of growth inhibition around the killer colonies. To quantitate loss of killer activity, colonies that had been identified as killer^+ were re-streaked for single colonies and the percentage of killer^+ colonies were determined. The efficiencies of −1 frameshifting were determined as previously described (Cui, Y. Dinman, J. D., and Peltz, S. W. (1996); Dinman, J. D., Ruiz-Echevarria, M. J., Czaplinski, K. and Peltz, S. W. (1 997b)) using the 0-frame control (pTI25) and −1 reporter (pF8) plasmids. […]
The effect of paromomycin on −1 ribosomal frameshifting was analyzed further by β-galactosidase assay using plasmids pF8 (−1 frameshift reporter construct) or pTI25 (zero frame control) in isogenic wild-type and upf3Δ strains. […]

Upf1p-eRF3 interaction [4] = target: T2, Upf1p-eRF3 interaction (Saccharomyces cerevisiae, UniProt P30771, K436A); assay: GST-eRF3 pull-down of purified FLAG-Upf1p with immunoblotting; assay type: binding, yeast; conditions: GST-eRF3
T2 construct: FLAG (N); made in house; host or cells: GST-eRF3: E. coli BL21(DE3) pLysS with pGEX2T-SUP35
T2 sequence (P30771 whole entry K436A): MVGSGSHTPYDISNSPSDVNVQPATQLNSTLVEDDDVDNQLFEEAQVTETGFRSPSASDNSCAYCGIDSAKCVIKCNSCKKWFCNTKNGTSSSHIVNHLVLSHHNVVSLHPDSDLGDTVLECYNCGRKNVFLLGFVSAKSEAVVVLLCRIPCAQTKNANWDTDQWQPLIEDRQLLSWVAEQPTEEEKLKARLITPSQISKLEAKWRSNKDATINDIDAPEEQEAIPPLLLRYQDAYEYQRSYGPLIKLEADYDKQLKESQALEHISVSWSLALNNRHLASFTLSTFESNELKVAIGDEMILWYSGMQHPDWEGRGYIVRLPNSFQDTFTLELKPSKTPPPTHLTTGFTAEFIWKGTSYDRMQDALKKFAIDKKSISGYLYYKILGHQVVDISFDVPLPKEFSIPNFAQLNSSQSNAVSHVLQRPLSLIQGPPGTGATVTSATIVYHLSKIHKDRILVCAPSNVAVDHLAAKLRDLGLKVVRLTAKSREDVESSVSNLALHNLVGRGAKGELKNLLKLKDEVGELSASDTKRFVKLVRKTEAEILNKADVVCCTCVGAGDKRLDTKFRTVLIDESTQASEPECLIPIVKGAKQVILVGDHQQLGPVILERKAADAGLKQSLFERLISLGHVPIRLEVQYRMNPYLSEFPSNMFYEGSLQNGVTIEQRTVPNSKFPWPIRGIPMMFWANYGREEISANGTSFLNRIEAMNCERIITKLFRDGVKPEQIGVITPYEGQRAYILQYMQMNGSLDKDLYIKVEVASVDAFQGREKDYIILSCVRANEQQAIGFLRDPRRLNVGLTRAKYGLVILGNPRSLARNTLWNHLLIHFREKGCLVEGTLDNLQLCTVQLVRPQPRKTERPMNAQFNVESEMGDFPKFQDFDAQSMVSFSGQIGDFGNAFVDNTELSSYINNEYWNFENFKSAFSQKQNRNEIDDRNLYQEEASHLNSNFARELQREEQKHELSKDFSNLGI
Procedure: as §1, §2, §3

Upf1p-eRF1 interaction = target: T3, Upf1p-eRF1 interaction (Saccharomyces cerevisiae, UniProt P30771, K436A); assay: GST-eRF1 pull-down of purified FLAG-Upf1p with immunoblotting; assay type: binding, yeast; conditions: GST-eRF1, various KCl concentrations
T3 construct: FLAG (N); made in house; host or cells: GST-eRF1: E. coli BL21(DE3) pLysS with pGEX2T-SUP45
T3 sequence (P30771 whole entry K436A): as above
Procedure: as §1, with “After 1 hour at 4° C. sepharose-protein complexes were washed for 3 minutes with 1 ml of IBTB supplemented with KCl to the final concentration indicated above each lane. The purified sepharose-protein complexes were resuspended in SDS-PAGE loading buffer and separated on a 7.5% SDS-PAGE gel and immunoblotted as in (A).” left out
Previous results have shown that strains harboring mutations in the conserved lysine residue in position 436 of the Upf1p (K436) result in stabilization of nonsense-containing mRNAs and a nonsense suppression phenotype (Weng et al., 1996a). […] Reaction mixtures containing the K436A form of Upf1p, GST-eRF1 and various KCl concentrations were prepared,and their interaction was monitored as described above.

Nc1ncnc2c1ncn2[C@@H]1O[C@H](COP(=O)(O)OP(=O)(O)OP(=O)(O)O)[C@@H](O)[C@H]1O [ATP]
Effect on interaction between Upf1p and eRF3 (Upf1p-eRF3 interaction [1]): did not affect the interaction; also recorded: did not prevent association of Upf1p with eRF3

Nc1nc2c(ncn2[C@@H]2O[C@H](COP(=O)(O)OP(=O)(O)OP(=O)(O)O)[C@@H](O)[C@H]2O)c(=O)[nH]1 [GTP]
Effect on interaction between Upf1p and eRF3 (Upf1p-eRF3 interaction [1]): not affected

NC[C@@H]1O[C@H](O[C@H]2[C@@H](O)[C@H](O[C@@H]3[C@@H](O)[C@H](N)C[C@H](N)[C@H]3O[C@H]3O[C@H](CO)[C@@H](O)[C@H](O)[C@H]3N)O[C@@H]2CO)[C@H](N)[C@@H](O)[C@@H]1O [paromomycin]
Paromomycin sensitivity (hypersensitivity) ([2]; upf1Δ or upf2Δ strains): Neither the upf1Δ or upf2Δ strains demonstrate hypersensitivity | Paromomycin sensitivity (zone of growth inhibition) ([2]; upf3Δ strain vs isogenic wild-type, disc containing 1 mg of paromomycin): more sensitive to paromomycin than the isogenic wild-type strain | β-galactosidase activity (−1 frameshift reporter) ([3]; upf3Δ cells carrying pF8, liquid media, different concentrations of the drug): increased continuously with increased concentrations of paromomycin | β-galactosidase activity ([3]; wild-type cells containing pF8, or any strain carrying pTI25 (zero frame control)): unaffected

B1: Upf1K436A: purified K436A form of the Upf1p, mutation of the conserved lysine residue in position 436 (protein, UniProt P30771 1-971, looked up, variant K436A)
ATP-dependent helicase NAM7: T1 sequence (P30771 1-971) with K436A
Interaction with eRF3 relative to wild-type Upf1p (Upf1p-eRF3 interaction [4]): equivalent affinity as the wild-type Upf1p | Reduction of interaction with eRF1 relative to wild-type Upf1 (Upf1p-eRF1 interaction): 4 to 6 fold
